Measurements: patent publication US8288367B2, “Substituted estratriene derivatives as 17BETA HSD inhibitors” (Solvay Pharmaceuticals GmBH, priority 2006, dated 2012)

What was measured:
[1] = molecular target: T1, recombinant human 17β-HSD2 (Homo sapiens, UniProt P37059); assay: Recombinant 17β-HSD2 assay (HPLC, 3H-estradiol conversion); type: biochemical; conditions: 50 nM estradiol, 1 mM β-NAD, read-out: Inhibition of rec. 17β-HSD2; for inhibition at 0.1 µM: 100 nM compound; for inhibition at 1 µM: 1 μm compound
T1 construct: made in house; host or cells: Sf9 insect cells (baculovirus, Bac to Bac Expression System)
T1 sequence (P37059 1-387): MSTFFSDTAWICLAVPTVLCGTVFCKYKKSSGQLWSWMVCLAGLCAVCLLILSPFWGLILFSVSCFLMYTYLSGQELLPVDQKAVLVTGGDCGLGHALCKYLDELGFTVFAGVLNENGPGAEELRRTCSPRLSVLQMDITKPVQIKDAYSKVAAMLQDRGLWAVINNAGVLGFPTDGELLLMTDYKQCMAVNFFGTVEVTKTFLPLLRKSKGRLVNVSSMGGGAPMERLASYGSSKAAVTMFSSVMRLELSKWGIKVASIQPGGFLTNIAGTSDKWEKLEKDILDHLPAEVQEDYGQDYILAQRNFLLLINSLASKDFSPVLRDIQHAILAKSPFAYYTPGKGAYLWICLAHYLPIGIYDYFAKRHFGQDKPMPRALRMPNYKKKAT
Procedure: 17β-HSD1 or 17β-HSD2 purification: Recombinant 17β-HSD1 and 17β-HSD2 baculoviruses were generated by the “Bac to Bac Expression System” (Invitrogen). Recombinant 17β-HSD1 or 17β-HSD2 bacmids were transfected to Sf9 insect cells using “Cellfectin Reagent” (Invitrogen). 60 h later cells were harvested; the fractions including 17β-HSD1 or 17β-HSD2 were isolated as described by Puranen et al. (1994). Aliquots were stored frozen until determination of enzymatic activity. Recombinant 17β-HSD2 assay: Recombinant 17β-HSD2 assay was performed as described for 17β-HSD1 but with following modifications: 6 μg/ml of recombinant protein homogenate, 50 nM Estradiol (Sigma, E8875) as a substrate, 800 000 cpm/ml ^3H-estradiol (PerkinElmer, NET317) as a tracer substrate and 1 mM β-NAD (Sigma N7004) as a co-factor were used. Total radioactivity for estrone and estradiol were determined in each sample and percent inhibition of estrone conversion by the respective inhibitor was calculated. For the calculation of % inhibition the following formula was used: [formula] Percent inhibition was calculated as follows: % inhibition=100−% conversion

[2] = molecular target: T2, recombinant human 17β-HSD1 (Homo sapiens, UniProt P14061); assay: Recombinant 17β-HSD1 assay (HPLC, 3H-estrone conversion); type: biochemical; conditions: 30 nM estrone, 1 mM NADPH, 30 min RT, read-out: Inhibition of rec. 17β-HSD1; for inhibition at 0.1 µM: 100 nM compound; for inhibition at 1 µM: 0.5 h, 1 μm compound
T2 construct: made in house; host or cells: Sf9 insect cells (baculovirus, Bac to Bac Expression System)
T2 sequence (P14061 1-328): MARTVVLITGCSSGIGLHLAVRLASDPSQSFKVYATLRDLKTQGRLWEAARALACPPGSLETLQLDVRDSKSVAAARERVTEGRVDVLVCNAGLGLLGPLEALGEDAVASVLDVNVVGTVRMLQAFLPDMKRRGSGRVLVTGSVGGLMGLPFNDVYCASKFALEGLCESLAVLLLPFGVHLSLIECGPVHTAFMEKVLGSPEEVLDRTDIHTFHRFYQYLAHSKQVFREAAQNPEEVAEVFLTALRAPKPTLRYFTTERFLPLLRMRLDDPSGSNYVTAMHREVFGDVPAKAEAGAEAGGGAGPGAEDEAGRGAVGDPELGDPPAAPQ
Procedure: 17β-HSD1 or 17β-HSD2 purification: Recombinant 17β-HSD1 and 17β-HSD2 baculoviruses were generated by the “Bac to Bac Expression System” (Invitrogen). Recombinant 17β-HSD1 or 17β-HSD2 bacmids were transfected to Sf9 insect cells using “Cellfectin Reagent” (Invitrogen). 60 h later cells were harvested; the fractions including 17β-HSD1 or 17β-HSD2 were isolated as described by Puranen et al. (1994). Aliquots were stored frozen until determination of enzymatic activity.
Recombinant 17β-HSD1 assay: Recombinant protein homogenate (0.1 μg/ml) was incubated in 20 mM KH2PO4 pH 7.4 reaction buffer, including protease inhibitors (Complete Protease Inhibitor Cocktail tablet, Roche Diagnostics, 1697498), with 30 nM estrone (Sigma, E9750) as substrate, 800 000 cpm/ml ^3H-estrone (PerkinElmer, NET319001MC) as a tracer substrate, and 1 mM NADPH (Sigma, N1630) as a co-factor for 30 min at RT, in the presence of potential inhibitors at concentrations of 1 μM or 0.1 μM. Inhibitor stock solutions were prepared in DMSO. The enzyme reaction was stopped by addition of trichloroacetic acid (1% final concentration). Samples were centrifuged in a microtiter plate at 4000 rpm for 10 min. Supernatants were applied to reverse phase HPLC on a Waters Symmetry C18 column, equipped with a Waters Sentry Guard column. Isocratic HPLC runs were performed at RT at a flow rate of 1 ml/min of acetonitrile:water 48:52 as running solvent. Radioactivity was monitored in the eluate by a Packard Flow Scintillation Analyzer. Total radioactivity for estrone and estradiol were determined in each sample and percent inhibition of estradiol conversion by the respective inhibitor was calculated
For the calculation of % inhibition the following formula was used:
[formula] Percent inhibition was calculated as follows: % inhibition=100−% conversion

Row | Compound | inhibition at 0.1 µM [1] | inhibition at 1 µM [1] | inhibition at 0.1 µM [2] | inhibition at 1 µM [2]
1 | Cc1cnc(NC(=O)CC[C@@H]2CC(=O)[C@@]3(C)CC[C@@H]4c5ccc(C(N)=O)cc5CC[C@H]4[C@H]23)s1 [Compound 3, 15β-{3-[(5-methyl-1,3-thiazol-2-yl)amino]-3-oxopropyl}-17-oxoestra-1(10),2,4-triene-3-carboxamide] | -1.8% | 8.6% | 20% | 74%
2 | Cc1cnc(NC(=O)CC[C@@H]2CC(=O)[C@@]3(C)CC[C@@H]4c5ccc(B(O)O)cc5CC[C@H]4[C@H]23)s1 [Compound 11, [15β-{3-[(5-methyl-1,3-thiazol-2-yl)amino]-3-oxopropyl}-17-oxoestra-1(10),2,4-trien-3-yl]boronic acid] | 4.2% | 5.5% | 62% | 88%
3 | C[C@]12CC[C@@H]3c4ccc(B(O)O)cc4CC[C@H]3[C@@H]1[C@@H](CCCC(=O)NCc1ccc(O)c(O)c1)CC2=O [Compound 12, [15alpha-{4-[(3,4-dihydroxybenzyl)amino]-4-oxobutyl}-17-oxoestra-1(10),2,4-trien-3-yl]boronic acid] | -5% | 6.2% | 32% | 57%
4 | Cc1cnc(NC(=O)CCC[C@H]2CC(=O)[C@@]3(C)CC[C@@H]4c5ccc(B(O)O)cc5CC[C@H]4[C@H]23)s1 [Compound 16, [15alpha-{4-[(5-methyl-1,3-thiazol-2-yl)amino]-4-oxobutyl}-17-oxoestra-1(10),2,4-trien-3-yl]boronic acid] |  |  | 30% | 59%
5 | C[C@]12CC[C@@H]3c4ccc(B(O)O)cc4CC[C@H]3[C@@H]1[C@@H](CCCC(=O)NCc1ccc3c(c1)OCO3)CC2=O [Compound 19, [15alpha-{4-[(1,3-benzodioxol-5-ylmethyl)amino]-4-oxobutyl}-17-oxoestra-1(10),2,4-trien-3-yl]boronic acid] | -2.4% | 0.1% | 19% | 43%
6 | CN(Cc1ccccc1)C(=O)CCC[C@H]1CC(=O)[C@@]2(C)CC[C@@H]3c4ccc(B(O)O)cc4CC[C@H]3[C@H]12 [Compound 22, [15alpha-{4-[benzyl(methyl)amino]-4-oxobutyl}-17-oxoestra-1(10),2,4-trien-3-yl]boronic acid] |  |  | 37% | 60%
7 | C[C@]12CC[C@@H]3c4ccc(B(O)O)cc4CC[C@H]3[C@@H]1[C@@H](CCCC(=O)NCc1ccccc1)CC2=O [Compound 23, [15alpha-[4-(benzylamino)-4-oxobutyl]-17-oxoestra-1(10),2,4-trien-3-yl]boronic acid] | 1.8% | 0.4% | 76% | 54%
8 | COc1ccc(CCN(C)C(=O)CCC[C@H]2CC(=O)[C@@]3(C)CC[C@@H]4c5ccc(B(O)O)cc5CC[C@H]4[C@H]23)cc1OC [Compound 26, [15alpha-(4-{[2-(3,4-dimethoxyphenyl)ethyl](methyl)amino}-4-oxobutyl)-17-oxoestra-1(10),2,4-trien-3-yl]boronic acid] |  |  | 21% | 41%
9 | Cc1cccc2c(CCNC(=O)CC[C@@H]3CC(=O)[C@@]4(C)CC[C@@H]5c6ccc(B(O)O)cc6CC[C@H]5[C@H]34)c[nH]c12 [Compound 30, [15beta-(3-{[2-(7-methyl-1H-indol-3-yl)ethyl]amino}-3-oxopropyl)-17-oxoestra-1(10),2,4-trien-3-yl]boronic acid] | 1.3% | 6.3% | 50% | 56%
10 | Cc1cnc(NC(=O)CC[C@@H]2CC(=O)[C@@]3(C)CC[C@@H]4c5ccc(B(O)O)cc5CC[C@H]4[C@H]23)s1 [Compound 31, [15beta-{3-[(5-methyl-1,3-thiazol-2-yl)amino]-3-oxopropyl}-17-oxoestra-1(10),2,4-trien-3-yl]boronic acid] | 2.6% | 1.6% | 82% | 90%
11 | C[C@]12CC[C@@H]3c4ccc(B(O)O)cc4CC[C@H]3[C@@H]1[C@H](CCC(=O)NC1CCCCC1)CC2=O [Compound 32, [15beta-[3-(cyclohexylamino)-3-oxopropyl]-17-oxoestra-1(10),2,4-trien-3-yl]boronic acid] | 1.1% | 3.5% | 77% | 91%
12 | C[C@]12CC[C@@H]3c4ccc(B(O)O)cc4CC[C@H]3[C@@H]1[C@H](CCC(=O)N1CCOCC1)CC2=O [Compound 33, [15beta-(3-morpholin-4-yl-3-oxopropyl)-17-oxoestra-1(10),2,4-trien-3-yl]boronic acid] | -2.3% | -1.1% | 20% | 59%
13 | CN(Cc1ccccc1)C(=O)CC[C@@H]1CC(=O)[C@@]2(C)CC[C@@H]3c4ccc(B(O)O)cc4CC[C@H]3[C@H]12 [Compound 37, [15beta-{3-[benzyl(methyl)amino]-3-oxopropyl}-17-oxoestra-1(10),2,4-trien-3-yl]boronic acid] |  |  | 22% | 49%
14 | COc1cc(Nc2ccc3c(c2)CC[C@H]2[C@@H]4[C@@H](CCCC(=O)N5CCOCC5)CC(=O)[C@@]4(C)CC[C@H]32)cc(C(F)(F)F)c1 [Compound 75, 3-{[3-methoxy-5-(trifluoromethyl)phenyl]amino}-15alpha-(4-morpholin-4-yl-4-oxobutyl)estra-1(10),2,4-trien-17-one] |  |  | 36% | 50%
15 | C[C@]12CC[C@@H]3c4ccc(Nc5cccc(S(=O)(=O)N6CCOCC6)c5)cc4CC[C@H]3[C@@H]1[C@@H](CCCC(=O)N1CCOCC1)CC2=O [Compound 76, 15alpha-(4-morpholin-4-yl-4-oxobutyl)-3-{[3-(morpholin-4-ylsulfonyl)phenyl]amino}estra-1(10),2,4-trien-17-one] |  |  | 29% | 26%
16 | C[C@]12CC[C@@H]3c4ccc(Nc5cnc6ccccc6c5)cc4CC[C@H]3[C@@H]1[C@@H](CCCC(=O)N1CCOCC1)CC2=O [Compound 83, 15alpha-(4-morpholin-4-yl-4-oxobutyl)-3-(quinolin-3-ylamino)estra-1(10),2,4-trien-17-one] |  |  | 19% | 50%
